# Like-named read-outs stand apart in the source and are kept apart here.
# Key:
# EGFR del19/C797S = EGFR del19/C797S (Homo sapiens, UniProt P00533, C797S/DEL746-750); assay: Biochemical EGFR kinase assay (Lance Ultra TR-FRET), double mutant del19/C797S
# How it was run: (§1)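 Kinase activity is measured by TR-FRET phosphopeptide detection. Compounds span 0.003 μM to 10 μM; the 1 h reaction at room temperature is quenched with EDTA, then labelled antibody (2 nM) is incubated 60 min before reading.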
# EGFR L858R/T790M/C797S = EGFR L858R/T790M/C797S (Homo sapiens, UniProt P00533, C797S/L858R/T790M); assay: Biochemical EGFR kinase assay (Lance Ultra TR-FRET), triple mutant L858R/T790M/C797S
# How it was run: as §1
# EGFR L858R/C797S = EGFR L858R/C797S (Homo sapiens, UniProt P00533, C797S/L858R); assay: Biochemical EGFR kinase assay (Lance Ultra TR-FRET), double mutant L858R/C797S
# How it was run: as §1
# EGFR del19/T790M/C797S = EGFR del19/T790M/C797S (Homo sapiens, UniProt P00533, C797S/DEL746-750/T790M); assay: Biochemical EGFR kinase assay (Lance Ultra TR-FRET), triple mutant del19/T790M/C797S
# How it was run: as §1
# EGFR wildtype (WT) = EGFR wildtype (WT) (Homo sapiens, UniProt P00533); assay: Biochemical EGFR kinase assay (Lance Ultra TR-FRET), wildtype
# How it was run: as §1
# [1] = Km ATP, read-out: IC50 del19/C797S (nM) Km ATP
# [2] = Km ATP, read-out: IC50 L858R/T790M/C797S (nM) Km ATP
# [3] = Km ATP, read-out: IC50 L858R/C797S (nM) Km ATP
# [4] = Km ATP, read-out: IC50 del19/T790M/C797S (nM) Km ATP
# [5] = Km ATP, read-out: IC50 WT (nM) Km ATP
# [6] = IC50 L858R/C797S (nM) 100 μM ATP, 100 μM ATP
# [7] = IC50 del19/T790M/C797S (nM) 100 μM ATP, 100 μM ATP
# [8] = IC50 WT (nM) 100 μM ATP, 100 μM ATP
# [9] = IC50 del19/C797S (nM) 100 μM ATP, 100 μM ATP
# [10] = IC50 L858R/T790M/C797S (nM) 100 μM ATP, 100 μM ATP
# Sequence of EGFR del19/T790M/C797S (P00533 with tags, fused parts or gaps DEL746-750/T790M/C797S): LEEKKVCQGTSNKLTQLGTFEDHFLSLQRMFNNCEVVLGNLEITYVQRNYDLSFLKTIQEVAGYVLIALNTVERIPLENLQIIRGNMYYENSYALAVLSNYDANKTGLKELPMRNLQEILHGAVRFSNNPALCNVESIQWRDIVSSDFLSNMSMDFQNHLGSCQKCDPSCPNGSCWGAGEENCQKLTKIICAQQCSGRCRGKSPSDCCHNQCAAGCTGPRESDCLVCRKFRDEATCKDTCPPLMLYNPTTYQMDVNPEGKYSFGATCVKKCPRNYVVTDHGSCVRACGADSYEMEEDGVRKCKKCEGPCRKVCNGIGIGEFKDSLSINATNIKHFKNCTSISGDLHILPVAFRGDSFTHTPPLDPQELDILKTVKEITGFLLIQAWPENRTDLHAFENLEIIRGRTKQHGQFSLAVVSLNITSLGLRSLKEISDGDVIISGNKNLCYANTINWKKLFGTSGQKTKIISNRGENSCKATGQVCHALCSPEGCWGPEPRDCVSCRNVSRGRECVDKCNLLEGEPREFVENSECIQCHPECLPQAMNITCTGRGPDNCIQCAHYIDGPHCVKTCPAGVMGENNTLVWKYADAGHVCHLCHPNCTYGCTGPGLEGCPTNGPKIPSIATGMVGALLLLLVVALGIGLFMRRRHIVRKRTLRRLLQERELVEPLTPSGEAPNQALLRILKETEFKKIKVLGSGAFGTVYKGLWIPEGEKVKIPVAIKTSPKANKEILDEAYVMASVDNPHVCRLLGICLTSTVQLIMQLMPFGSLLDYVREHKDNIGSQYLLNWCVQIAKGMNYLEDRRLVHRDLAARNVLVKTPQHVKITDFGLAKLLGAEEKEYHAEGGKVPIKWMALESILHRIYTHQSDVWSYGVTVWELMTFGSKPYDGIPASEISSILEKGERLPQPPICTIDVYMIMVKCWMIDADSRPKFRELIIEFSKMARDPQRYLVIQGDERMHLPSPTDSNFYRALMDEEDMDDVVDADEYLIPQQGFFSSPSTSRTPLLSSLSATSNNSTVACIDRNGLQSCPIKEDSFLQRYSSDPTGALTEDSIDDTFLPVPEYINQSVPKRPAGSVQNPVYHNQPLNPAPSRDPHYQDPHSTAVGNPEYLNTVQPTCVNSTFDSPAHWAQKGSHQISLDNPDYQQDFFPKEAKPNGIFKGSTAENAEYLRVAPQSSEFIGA
# Sequence of EGFR L858R/T790M/C797S (P00533 25-1210 T790M/C797S/L858R): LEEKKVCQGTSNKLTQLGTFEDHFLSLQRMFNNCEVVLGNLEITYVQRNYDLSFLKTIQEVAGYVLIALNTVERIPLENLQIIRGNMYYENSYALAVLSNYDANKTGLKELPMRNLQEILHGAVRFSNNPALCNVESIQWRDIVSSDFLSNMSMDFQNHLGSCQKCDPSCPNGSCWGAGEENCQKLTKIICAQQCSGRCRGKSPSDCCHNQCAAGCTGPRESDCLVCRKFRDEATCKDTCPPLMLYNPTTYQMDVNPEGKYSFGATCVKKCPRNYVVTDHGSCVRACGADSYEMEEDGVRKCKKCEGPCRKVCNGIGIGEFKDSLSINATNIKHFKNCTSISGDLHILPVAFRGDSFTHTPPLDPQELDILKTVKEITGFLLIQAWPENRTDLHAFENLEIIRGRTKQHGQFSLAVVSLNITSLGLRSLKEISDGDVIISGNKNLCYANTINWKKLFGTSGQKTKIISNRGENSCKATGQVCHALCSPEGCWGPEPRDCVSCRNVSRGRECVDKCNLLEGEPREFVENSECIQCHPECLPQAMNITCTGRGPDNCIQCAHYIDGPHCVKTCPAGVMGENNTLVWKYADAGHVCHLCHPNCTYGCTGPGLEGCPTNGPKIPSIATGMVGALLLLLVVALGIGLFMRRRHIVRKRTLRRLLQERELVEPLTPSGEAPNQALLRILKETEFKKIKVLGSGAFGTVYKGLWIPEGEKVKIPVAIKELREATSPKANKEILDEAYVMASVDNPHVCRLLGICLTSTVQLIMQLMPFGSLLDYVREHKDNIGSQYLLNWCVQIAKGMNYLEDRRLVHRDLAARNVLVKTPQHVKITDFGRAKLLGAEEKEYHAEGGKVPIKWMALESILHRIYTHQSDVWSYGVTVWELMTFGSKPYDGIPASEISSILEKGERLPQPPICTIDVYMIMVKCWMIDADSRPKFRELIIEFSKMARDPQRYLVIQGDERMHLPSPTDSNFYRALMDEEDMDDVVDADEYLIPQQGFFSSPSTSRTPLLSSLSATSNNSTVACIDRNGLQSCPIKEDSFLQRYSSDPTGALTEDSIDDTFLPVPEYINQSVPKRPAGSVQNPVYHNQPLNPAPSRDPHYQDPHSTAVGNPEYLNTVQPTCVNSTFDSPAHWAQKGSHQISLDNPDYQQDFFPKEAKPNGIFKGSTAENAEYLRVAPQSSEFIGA
# Sequence of EGFR wildtype (WT) (P00533 25-1210): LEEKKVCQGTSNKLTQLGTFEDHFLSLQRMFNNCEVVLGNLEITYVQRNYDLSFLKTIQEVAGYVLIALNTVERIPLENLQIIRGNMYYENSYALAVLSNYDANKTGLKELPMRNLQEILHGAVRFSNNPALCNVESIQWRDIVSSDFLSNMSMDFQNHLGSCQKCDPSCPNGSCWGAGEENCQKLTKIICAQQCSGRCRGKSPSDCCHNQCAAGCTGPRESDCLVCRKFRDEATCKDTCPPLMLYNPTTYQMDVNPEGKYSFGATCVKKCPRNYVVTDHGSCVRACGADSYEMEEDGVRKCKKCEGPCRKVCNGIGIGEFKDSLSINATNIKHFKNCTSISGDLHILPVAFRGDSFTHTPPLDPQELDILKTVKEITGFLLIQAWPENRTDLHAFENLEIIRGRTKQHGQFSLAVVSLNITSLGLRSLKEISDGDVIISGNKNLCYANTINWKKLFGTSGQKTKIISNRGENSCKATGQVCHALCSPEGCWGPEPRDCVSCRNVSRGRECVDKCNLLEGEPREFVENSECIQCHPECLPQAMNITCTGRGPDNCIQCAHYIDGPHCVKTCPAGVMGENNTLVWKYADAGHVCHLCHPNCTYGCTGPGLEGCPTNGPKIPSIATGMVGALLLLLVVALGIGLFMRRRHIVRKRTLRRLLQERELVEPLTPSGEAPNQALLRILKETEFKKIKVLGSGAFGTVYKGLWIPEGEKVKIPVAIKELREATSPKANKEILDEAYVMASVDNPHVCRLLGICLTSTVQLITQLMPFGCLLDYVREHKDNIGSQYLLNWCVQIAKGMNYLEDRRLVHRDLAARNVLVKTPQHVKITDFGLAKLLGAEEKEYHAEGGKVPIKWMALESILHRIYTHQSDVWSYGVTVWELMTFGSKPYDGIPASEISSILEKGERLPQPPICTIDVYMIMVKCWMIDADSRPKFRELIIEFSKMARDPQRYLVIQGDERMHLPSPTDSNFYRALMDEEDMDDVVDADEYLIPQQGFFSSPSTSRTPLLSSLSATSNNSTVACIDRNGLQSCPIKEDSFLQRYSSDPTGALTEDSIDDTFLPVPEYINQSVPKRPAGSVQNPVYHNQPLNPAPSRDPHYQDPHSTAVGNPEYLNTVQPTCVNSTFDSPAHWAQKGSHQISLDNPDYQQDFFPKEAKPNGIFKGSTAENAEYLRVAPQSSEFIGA
# Sequence of EGFR L858R/C797S (P00533 25-1210 C797S/L858R): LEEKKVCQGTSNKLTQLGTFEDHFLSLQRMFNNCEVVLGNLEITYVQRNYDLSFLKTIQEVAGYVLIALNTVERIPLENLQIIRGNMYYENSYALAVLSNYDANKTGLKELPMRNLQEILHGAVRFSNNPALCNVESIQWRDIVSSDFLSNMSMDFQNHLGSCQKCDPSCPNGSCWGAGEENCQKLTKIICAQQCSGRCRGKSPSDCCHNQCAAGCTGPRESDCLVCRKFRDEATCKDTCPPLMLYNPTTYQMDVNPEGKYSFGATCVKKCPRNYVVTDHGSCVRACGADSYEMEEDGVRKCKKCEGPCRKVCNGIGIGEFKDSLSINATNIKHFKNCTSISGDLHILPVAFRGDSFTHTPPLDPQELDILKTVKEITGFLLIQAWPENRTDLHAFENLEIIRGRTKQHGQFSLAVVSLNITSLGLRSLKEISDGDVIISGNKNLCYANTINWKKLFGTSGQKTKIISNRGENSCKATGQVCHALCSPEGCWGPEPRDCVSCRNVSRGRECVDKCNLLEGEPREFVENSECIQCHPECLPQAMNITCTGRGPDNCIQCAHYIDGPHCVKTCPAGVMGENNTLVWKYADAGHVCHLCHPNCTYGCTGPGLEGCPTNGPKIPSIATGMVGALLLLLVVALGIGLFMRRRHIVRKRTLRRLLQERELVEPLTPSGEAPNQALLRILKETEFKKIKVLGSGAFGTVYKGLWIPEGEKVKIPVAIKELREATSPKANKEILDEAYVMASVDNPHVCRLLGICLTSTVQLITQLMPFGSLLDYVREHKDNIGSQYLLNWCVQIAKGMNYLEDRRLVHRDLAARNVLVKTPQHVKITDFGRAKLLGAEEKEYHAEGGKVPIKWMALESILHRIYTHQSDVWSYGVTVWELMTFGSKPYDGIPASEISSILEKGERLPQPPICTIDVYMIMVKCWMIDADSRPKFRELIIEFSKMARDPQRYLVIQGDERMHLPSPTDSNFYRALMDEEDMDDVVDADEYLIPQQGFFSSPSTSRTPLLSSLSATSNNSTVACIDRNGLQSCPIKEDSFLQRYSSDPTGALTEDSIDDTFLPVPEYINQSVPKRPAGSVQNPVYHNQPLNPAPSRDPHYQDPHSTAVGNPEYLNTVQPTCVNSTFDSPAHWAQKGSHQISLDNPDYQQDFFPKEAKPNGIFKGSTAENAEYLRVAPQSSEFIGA
IC50 (EGFR del19/C797S; [1]),IC50 (EGFR L858R/T790M/C797S; [2]),IC50 (EGFR L858R/C797S; [3]),IC50 (EGFR del19/T790M/C797S; [4]),IC50 (EGFR wildtype (WT); [5]),IC50 (EGFR L858R/C797S; [6]),IC50 (EGFR del19/T790M/C797S; [7]),IC50 (EGFR wildtype (WT); [8]),IC50 (EGFR del19/C797S; [9]),IC50 (EGFR L858R/T790M/C797S; [10]),SMILES
11.5 nM,0.1 nM,6.1 nM,0.4 nM,7.5 nM,–,–,–,–,–,"CN(C)C[C@H]1C[C@H](CNc2cc(Nc3ccnc(-c4cnn(S(=O)(=O)C5CC5)c4)n3)ncc2-c2ccn(CC(F)F)n2)C1 [Example 249, N^2-(2-(1-(Cyclopropylsulfonyl)-1H-pyrazol-4-yl)pyrimidin-4-yl)-5-(1-(2,2-difluoroethyl)-1H-pyrazol-3-yl)-N^4-(((1r,3r)-3-((dimethylamino)methyl)cyclobutyl)methyl)pyridine-2,4-diamine]"
63.8 nM,0.9 nM,4.4 nM,0.9 nM,56.1 nM,–,–,–,–,–,"CCC(C)Nc1cc(Nc2ccnc(-c3cnn(S(=O)(=O)C4CC4)c3)n2)ncc1-c1ccn(CC(F)F)n1 (stereo not drawn) [Example 250, N^4-(sec-Butyl)-N^2-(2-(1-(cyclopropylsulfonyl)-1H-pyrazol-4-yl)pyrimidin-4-yl)-5-(1-(2,2-difluoroethyl)-1H-pyrazol-3-yl)pyridine-2,4-diamine]"
0.4 nM,0.2 nM,0.1 nM,0.7 nM,0.3 nM,–,–,–,–,–,"CN(C)CC[C@H]1CC[C@@H](Nc2cc(Nc3ccnc(-c4cnn(S(=O)(=O)C5CC5)c4)n3)ncc2-c2ccn(CC(F)F)n2)CC1 [Example 251, N^2-(2-(1-(Cyclopropylsulfonyl)-1H-pyrazol-4-yl)pyrimidin-4-yl)-5-(1-(2,2-difluoroethyl)-1H-pyrazol-3-yl)-N^4-((1s,4s)-4-(2-(dimethylamino)ethyl)cyclohexyl)pyridine-2,4-diamine]"
1.2 nM,0.8 nM,4.3 nM,–,3 nM,9.8 nM,0.7 nM,> 10000 nM,–,–,"Cn1nc(-c2cnc(Nc3ccnc(-c4cnn(S(=O)(=O)C5CC5)c4)n3)cc2N[C@H]2CC[C@@](C)(O)CC2)cc1C(F)(F)F [Example 252, (1s,4s)-4-((2-((2-(1-(Cyclopropylsulfonyl)-1H-pyrazol-4-yl)pyrimidin-4-yl)amino)-5-(1-methyl-5-(trifluoromethyl)-1H-pyrazol-3-yl)pyridin-4-yl)amino)-1-methylcyclohexan-1-ol]"
2.3 nM,0.9 nM,7 nM,–,3.4 nM,10.6 nM,1.1 nM,618 nM,3.2 nM,2.1 nM,"Cn1nc(-c2cnc(Nc3ccnc(-c4cnn(S(=O)(=O)C5CC5)c4)n3)cc2N[C@H]2CC[C@@H](CO)CC2)cc1C(F)(F)F [Example 253, ((1s,4s)-4-((2-((2-(1-(Cyclopropylsulfonyl)-1H-pyrazol-4-yl)pyrimidin-4-yl)amino)-5-(1-methyl-5-(trifluoromethyl)-1H-pyrazol-3-yl)pyridin-4-yl)amino)cyclohexyl)methanol]"
5.5 nM,1.7 nM,18.5 nM,3.7 nM,12.9 nM,33.5 nM,3.9 nM,> 10000 nM,6.5 nM,6.5 nM,"Cn1nc(-c2cnc(Nc3ccnc(-c4cnn(S(=O)(=O)C5CC5)c4)n3)cc2N[C@H]2CC[C@@H](C(C)(C)O)CC2)cc1C(F)(F)F [Example 254, 2-((1s,4s)-4-((2-((2-(1-(Cyclopropylsulfonyl)-1H-pyrazol-4-yl)pyrimidin-4-yl)amino)-5-(1-methyl-5-(trifluoromethyl)-1H-pyrazol-3-yl)pyridin-4-yl)amino)cyclohexyl)propan-2-ol]"
1.1 nM,0.2 nM,5.3 nM,0.6 nM,8.2 nM,25.4 nM,0.8 nM,> 10000 nM,2.4 nM,1.2 nM,"Cn1nc(-c2cnc(Nc3ccnc(-c4cnn(S(=O)(=O)C5CC5)c4)n3)cc2N[C@H]2CC[C@@H](NCCF)CC2)cc1C(F)(F)F [Example 255, N^2-(2-(1-(Cyclopropylsulfonyl)-1H-pyrazol-4-yl)pyrimidin-4-yl)-N^4-((1s,4s)-4-((2-fluoroethyl)amino)cyclohexyl)-5-(1-methyl-5-(trifluoromethyl)-1H-pyrazol-3-yl)pyridine-2,4-diamine]"
0.8 nM,0.4 nM,–,1.4 nM,0.5 nM,7.5 nM,–,123 nM,2 nM,0.5 nM,"CN(C)C[C@H]1CC[C@@H](Nc2cc(Nc3ccnc(-c4cnn(S(=O)(=O)C5CC5)c4)n3)ncc2-c2cc(C(F)(F)F)n(C)n2)CC1 [Example 256, N^2-(2-(1-(Cyclopropylsulfonyl)-1H-pyrazol-4-yl)pyrimidin-4-yl)-N^4-((1s,4s)-4-((dimethylamino)methyl)cyclohexyl)-5-(1-methyl-5-(trifluoromethyl)-1H-pyrazol-3-yl)pyridine-2,4-diamine]"
2.1 nM,1.1 nM,5.2 nM,4.3 nM,7.5 nM,29.1 nM,3.7 nM,294 nM,6 nM,1.6 nM,"CN(C)C(=O)[C@H]1CC[C@@H](Nc2cc(Nc3ccnc(-c4cnn(S(=O)(=O)C5CC5)c4)n3)ncc2-c2cc(C(F)(F)F)n(C)n2)CC1 [Example 257, (1s,4s)-4-((2-((2-(1-(Cyclopropylsulfonyl)-1H-pyrazol-4-yl)pyrimidin-4-yl)amino)-5-(1-methyl-5-(trifluoromethyl)-1H-pyrazol-3-yl)pyridin-4-yl)amino)-N,N-dimethylcyclohexane-1-carboxamide]"
–,–,–,–,–,819 nM,172 nM,> 10000 nM,151 nM,63.9 nM,"CN(CC(F)F)C[C@H]1CC[C@@H](Nc2cc(Nc3ccnc(-c4cnn(S(=O)(=O)C5CC5)c4)n3)ncc2-c2cc(C(F)(F)F)n(C)n2)CC1 [Example 259, N^2-(2-(1-(Cyclopropylsulfonyl)-1H-pyrazol-4-yl)pyrimidin-4-yl)-N^4-((1s,4s)-4-(((2,2-difluoroethyl)(methyl)amino)methyl)cyclohexyl)-5-(1-methyl-5-(trifluoromethyl)-1H-pyrazol-3-yl)pyridine-2,4-diamine]"
5 nM,3.8 nM,2.7 nM,8.6 nM,27.1 nM,59.9 nM,9.8 nM,5230 nM,8.7 nM,4.3 nM,"Cn1nc(-c2cnc(Nc3ccnc(-c4cnn(S(=O)(=O)C5CC5)c4)n3)cc2N[C@H]2CCC[C@H](CO)C2)cc1C(F)(F)F [Example 260, ((1S,3S)-3-((2-((2-(1-(Cyclopropylsulfonyl)-1H-pyrazol-4-yl)pyrimidin-4-yl)amino)-5-(1-methyl-5-(trifluoromethyl)-1H-pyrazol-3-yl)pyridin-4-yl)amino)cyclohexyl)methanol]"
5.8 nM,0.8 nM,5.6 nM,0.1 nM,6.4 nM,22.7 nM,1.2 nM,> 10000 nM,77.9 nM,1.4 nM,"Cn1nc(-c2cnc(Nc3ccnc(-c4cnn(S(=O)(=O)C5CC5)c4)n3)cc2NC[C@H]2CC[C@@H](O)C2)cc1C(F)(F)F [Example 261, (1R,3S)-3-(((2-((2-(1-(Cyclopropylsulfonyl)-1H-pyrazol-4-yl)pyrimidin-4-yl)amino)-5-(1-methyl-5-(trifluoromethyl)-1H-pyrazol-3-yl)pyridin-4-yl)amino)methyl)cyclopentan-1-ol]"
4.5 nM,2.1 nM,5.7 nM,0.1 nM,8.4 nM,5.3 nM,6.6 nM,1880 nM,33.4 nM,7.3 nM,"Cn1nc(-c2cnc(Nc3ccnc(-c4cnn(S(=O)(=O)C5CC5)c4)n3)cc2N[C@H]2CC[C@@H](CCO)CC2)cc1C(F)(F)F [Example 262, 2-((1s,4s)-4-((2-((2-(1-(Cyclopropylsulfonyl)-1H-pyrazol-4-yl)pyrimidin-4-yl)amino)-5-(1-methyl-5-(trifluoromethyl)-1H-pyrazol-3-yl)pyridin-4-yl)amino)cyclohexyl)ethan-1-ol]"
15.5 nM,2.6 nM,6.3 nM,0.3 nM,54.5 nM,32.5 nM,9.9 nM,> 10000 nM,237 nM,11.5 nM,"Cn1nc(-c2cnc(Nc3ccnc(-c4cnn(S(=O)(=O)C5CC5)c4)n3)cc2N[C@H]2CC[C@H](CCO)CC2)cc1C(F)(F)F [Example 263, 2-((1r,4r)-4-((2-((2-(1-(Cyclopropylsulfonyl)-1H-pyrazol-4-yl)pyrimidin-4-yl)amino)-5-(1-methyl-5-(trifluoromethyl)-1H-pyrazol-3-yl)pyridin-4-yl)amino)cyclohexyl)ethan-1-ol]"
